# According to PubChem BioAssay AID1845212 (Molecular Pharmacology Branch, DTP, NCI, 2023):
# pIC50: −log10 of the molar value.
# Tested on: NCI-H719 tumor spheroids, viability
# Test: Anticancer human tumor NCI-H719 cell line growth inhibition;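 further: spheroids exposed to compounds for seven days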;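 on viability, T/C: percent viability relative to DMSO vehicle control as 100%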
# Conditions: spheroids with HUVEC and MSC; for pIC50: curve of first compound; for viability, T/C: stronger effect = lower value
# Procedure, shortened: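 Complex tumor spheroids combined malignant cells with endothelial cells and mesenchymal stem cells. DNA-damaging drugs and DNA repair inhibitors were tested alone and in combination, at half-log dilutions down from clinical Cmax (top 10 microM if Cmax unknown), 0.25% DMSO final.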
# [1] = second compound 30 pM, first compound 0.0316 µM
# [2] = second compound 30 pM, first compound 0.1 µM
# [3] = second compound 30 pM, first compound 0.316 µM
# [4] = second compound 30 pM, first compound 1 µM
# [5] = second compound 30 pM, first compound 3.16 µM
# [6] = second compound 30 pM, first compound 10 µM
# [7] = second compound 94.9 pM, first compound 0.0316 µM
# [8] = second compound 94.9 pM, first compound 0.1 µM
# [9] = second compound 94.9 pM, first compound 0.316 µM
# [10] = second compound 94.9 pM, first compound 1 µM
# [11] = second compound 94.9 pM, first compound 3.16 µM
# [12] = second compound 94.9 pM, first compound 10 µM
# [13] = second compound 0.0003 µM, first compound 0.0316 µM
# [14] = second compound 0.0003 µM, first compound 0.1 µM
# [15] = second compound 0.0003 µM, first compound 0.316 µM
# [16] = second compound 0.0003 µM, first compound 1 µM
# [17] = second compound 0.0003 µM, first compound 3.16 µM
# [18] = second compound 0.0003 µM, first compound 10 µM
# [19] = second compound 0.000949 µM, first compound 0.0316 µM
# [20] = second compound 0.000949 µM, first compound 0.1 µM
# [21] = second compound 0.000949 µM, first compound 0.316 µM
# [22] = second compound 0.000949 µM, first compound 1 µM
# [23] = second compound 0.000949 µM, first compound 3.16 µM
# [24] = second compound 0.000949 µM, first compound 10 µM
# [25] = second compound 0.003 µM, first compound 0.0316 µM
# [26] = second compound 0.003 µM, first compound 0.1 µM
# [27] = second compound 0.003 µM, first compound 0.316 µM
# [28] = second compound 0.003 µM, first compound 1 µM
# [29] = second compound 0.003 µM, first compound 3.16 µM
# [30] = second compound 0.003 µM, first compound 10 µM
Compound,pIC50 (second compound 30 pM),pIC50 (second compound 94.9 pM),pIC50 (second compound 0.0003 µM),pIC50 (second compound 0.000949 µM),pIC50 (second compound 0.003 µM),"viability, T/C [1] [%]","viability, T/C [2] [%]","viability, T/C [3] [%]","viability, T/C [4] [%]","viability, T/C [5] [%]","viability, T/C [6] [%]","viability, T/C [7] [%]","viability, T/C [8] [%]","viability, T/C [9] [%]","viability, T/C [10] [%]","viability, T/C [11] [%]","viability, T/C [12] [%]","viability, T/C [13] [%]","viability, T/C [14] [%]","viability, T/C [15] [%]",further results
Cc1cc(C)c(CNC(=O)c2cc(-c3ccc(CN4CCOCC4)cc3)cc3c2cnn3C2CCCC2)c(=O)[nH]1 + COc1cc2c(cc1O)CCNC21CSC2c3c(OC(C)=O)c(C)c4c(c3C(COC1=O)N1C(O)C3Cc5cc(C)c(OC)c(O)c5C(C21)N3C)OCO4,< 5.00,> 7.50,> 7.50,> 7.50,> 7.50,90.3,100,92.1,78.7,83.1,56.2,24,26.2,37.6,25.5,40.4,32.2,6.57,8.67,7.48,"viability, T/C [16]: 8.65%; viability, T/C [17]: 11.9%; viability, T/C [18]: 6.02%; viability, T/C [19]: 6.46%; viability, T/C [20]: 7.33%; viability, T/C [21]: 6.11%; viability, T/C [22]: 6.61%; viability, T/C [23]: 7.09%; viability, T/C [24]: 4.83%; viability, T/C [25]: 0.34%; viability, T/C [26]: 0.8%; viability, T/C [27]: 0.7%; viability, T/C [28]: 1.08%; viability, T/C [29]: 0.44%; viability, T/C [30]: 0.8%"
[2H]c1nc(C)nc([2H])c1-c1cc(NC[C@@H](C)c2cccc3c(C(=O)NC)ccnc23)ncn1 + COc1cc2c(cc1O)CCNC21CSC2c3c(OC(C)=O)c(C)c4c(c3C(COC1=O)N1C(O)C3Cc5cc(C)c(OC)c(O)c5C(C21)N3C)OCO4,< 5.00,> 7.50,> 7.50,> 7.50,> 7.50,89.5,82.5,71.9,66.6,76.8,79.7,20.4,32.3,38.6,28.9,22.1,29.2,6.45,6.02,6.77,"viability, T/C [16]: 8.36%; viability, T/C [17]: 6.88%; viability, T/C [18]: 7.14%; viability, T/C [19]: 7.69%; viability, T/C [20]: 7.59%; viability, T/C [21]: 6.74%; viability, T/C [22]: 6.63%; viability, T/C [23]: 6.53%; viability, T/C [24]: 7.49%; viability, T/C [25]: 0.31%; viability, T/C [26]: 0.58%; viability, T/C [27]: 0.16%; viability, T/C [28]: 0.86%; viability, T/C [29]: 0.13%; viability, T/C [30]: 0.24%"
